Legend:
[1] = tested on: restraint stress (RS) rat model; assay: Restraint stress (RS) rat model: body weight, food intake, fecal pellet output; assay type: in vivo, Sprague-Dawley (SD) rats
Description: Male Sprague-Dawley (SD) rats, weighting 200-250 g were purchased from Charles River Laboratories Beijing and housed in an SPF grade animal facility of OSRI in individual ventilated cages (IVC), with 3 rats per cage. All animals were maintained with a 12-hour light/dark cycle and had free access to rodent chow and water. All animal study procedures were in accordance with Animal Welfare Regulations and approved by the Institutional Animal Care and Use Committee (IACUC) of OSRI.
Rats (from group #2 and group #3) were submitted to a 2-hour restraint in a plastic cylinder daily in the PM for 10 consecutive days (D1 to D10). Rats from the control group (group #1) remained in their individual cages, undisturbed throughout the entire experiment. After 3 days of repeated RS modeling, from D4 to D10, the rats from group #2 and group #3 were treated in the morning (4h ahead of PM restraint) with vehicle (5% AG) and the test substance (2.5 mg/kg) respectively for 7 consecutive days. Fecal pellet output was used to estimate distal colonic motility as a validated index (Hong S et al., Gut 2009, 58:202-210). During the 2-hour restraint period, the rat's fecal pellet output was collected and counted, same for the rats in control group during the same 2-hour mock observation period.

[2] = tested on: histamine; assay: Urine histamine level by ELISA in RS model; assay type: in vivo, Sprague Dawley Rats; settings: rat, 2.5 mg/kg PO, day 7 (4 days post treatment), p<0.01 vs RS group, FIG. 6
Protocol: (§1) Sprague Dawley Rats were submitted to a 2h restraint in a plastic cylinder daily for 7 consecutive days as described above. In control group, the rats were remained in an individual cage, undisturbed, throughout the experiment.
Urine samples were collected every day after the restraint. A plastic dish was placed underneath restraint tube and the urine sample was collected. It is immediately transferred into a tube and stored at-800C until further analysis. Histamine was measured with the Histamine ELISA Kit ((CAT #: D751012, BBI) according to the manufacturer's instructions as follows.
Calculate the required number of slats in advance, and take out the kit 30 minutes before the test and restore it to room temperature. • 2. Add 50 μL of standard working liquid and test sample to each reaction hole. The standard needs to be re-drilled. 50 μL of biotin-labeled histamine antibody working solution was added to each reaction well immediately, and the plate was sealed and incubated at 37° C. for 45 min. • 3. […] OD value was measured with 450 nm wavelength of enzyme label instrument. • 9. Draw a standard curve with the concentration of standard substance as the horizontal coordinate and absorbance as the vertical coordinate. • 10. Statistical significance was either calculated by two-tailed T-test (visceral sensitivity on day 3) or one-way ANOVA using Dunnett's multiple comparison. […]

[3] = tested on: restraint stress (RS) rat model; assay: Visceromotor response to colorectal distention in RS model; assay type: in vivo, Sprague Dawley Rats; settings: 2.5 mg/kg PO, day 7 (4 days post dose), p<0.05 vs RS group, FIG. 5
Protocol: as §1
Colonic distension—A polyethylene balloon (3 cm long, 1.5 cm max. diameter) was secured to tubing attached to a blood pressure meter to be used to perform colonic distension. The balloon was lubricated and placed into the rat's distal colon so that the tip of the balloon was 2 cm proximal to the anus. Using the blood pressure meter distension device, rats were restrained in a plastic containment device and allowed to acclimate for 10 min before testing. The rats received phasic distension (0-100 mmHg in 5-mmHg ascending increments) of the colon until the first contraction of the testicles, tail or abdominal musculature occurred. This visualization was performed by three independent observers. […] Compliance of the colon was not measured given the rapid distension protocol used in this study. The colonic distensions were repeated three times with 5-min interstimulus intervals and the mean pressures at the nociceptive threshold were recorded for each rat.
Statistical significance was either calculated by two-tailed T-test (visceral sensitivity on day 3) or one-way ANOVA using Dunnett's multiple comparison. P<0.05 was considered statistically significant.

## Cc1c(-c2cnc(N)c(C#N)c2)c(F)cc2c(=O)c(C(=O)O)cn(C3CC3)c12 [OPS-2071, 1-cyclopropyl-6-fluoro-1,4-dihydro-8-methyl-7-(2-amino-3-cyano-5-pyridyl)-4-oxo-3-quinoline-carboxylic acid]
[1]; 2.5 mg/kg PO QD for 7 days from D4, group #3 vs. RS vehicle group #2, FIGS. 1 and 2
  body weight / body weight change (BWC) % in RS-IBS model: body weight drop caused by restraint stress is improved
[1]; 2.5 mg/kg PO from day 4, group #3 vs. group #2, FIG. 3
  fecal pellet output during 2-hour restraint: a decrease of the fecal pellet output was observed
[1]; 2.5 mg/kg PO, monitored from 3 days post treatment initiation, group #3 vs. group #2
  food intake (appetite) in RS model: protective effect on decreased appetite
[2]
  urine histamine level: decreased
[3]
  visceral sensitivity (visceromotor response to colorectal distention, mmHg): a decrease in visceral sensitivity

Source: patent US20260027103A1, “PHARMACEUTICAL COMPOSITIONS COMPRISING A QUINOLONE COMPOUND FOR IRRITABLE BOWEL SYNDROME” (OTSUKA PHARMACEUTICAL CO., LTD., priority 2022, published 2026)
